PMC2074379 (British Journal of Cancer, 1996)
Entries after “also recorded” stand apart in the source; their conditions may differ. Residues, ends and D or L forms follow the SMILES beside them.

Assays:
[1] = ref Cummings et al., 1994; cited from earlier work
Description: (§1) British Journal of Cancer (1996) 73, 715-720 ? 1996 Stockton Press All rights reserved 0007-0920/96 $12.00 % Metabolism of the broad-spectrum neuropeptide growth factor antagonist: ID-Arg1, D-Phe5, D-Trp7'9, Leull"-substance P DA Jones', J Cummings', SP Langdon', AJ Maclellan', T Higgins2, E Rozengurt2 and JF Smyth' 'Imperial Cancer Research Fund, Medical Oncology Unit, Western General Hospital, Edinburgh EH4 2XU; 2Imperial Cancer Research Fund, PO Box 123, Lincoln's Inn Fields, London WC2A 3PX, UK. Summary Broad-spectrum neuropeptide growth factor antagonists, such as [D-Arg', D-Phe5, D-Trp7' ...

[2] = Stability of antagonist D and antagonist G in 1% (w/v) mouse liver homogenate; type: in vitro ADME; settings: for amount of antagonist remaining after 1 h of incubation: 50 nmol in 1.0 ml 1% w/v mouse liver homogenate in PBS pH 7.4, 37°C, HPLC with fluorescence detection, corrected for extraction efficiency (94.4% D, 94% G), three experiments; for amount of metabolite accumulated after 1 h: from 50 nmol parent antagonist in 1% mouse liver homogenate, PBS pH 7.4, 37°C, HPLC fluorescence, extraction efficiency 94.4% (D metabolites), 94% (G metabolites) assumed, mean of three experiments
Description: British Journal of Cancer (1996) 73, 715-720 ? 1996 Stockton Press All rights reserved 0007-0920/96 $12.00 % Metabolism of the broad-spectrum neuropeptide growth factor antagonist: ID-Arg1, D-Phe5, D-Trp7'9, Leull"-substance P DA Jones', J Cummings', SP Langdon', AJ Maclellan', T Higgins2, E Rozengurt2 and JF Smyth' 'Imperial Cancer Research Fund, Medical Oncology Unit, Western General Hospital, Edinburgh EH4 2XU; 2Imperial Cancer Research Fund, PO Box 123, Lincoln's Inn Fields, London WC2A 3PX, UK. Summary Broad-spectrum neuropeptide growth factor antagonists, such as [D-Arg', D-Phe5, D-Trp7'9, Leu']substance P (antagonist D) and [Arg6, D-Trp7'9, NmePhe8]substance p(6- 11) (antagonist G), are currently being investigated as possible anti-tumour agents. […] Keywords: broad spectrum; neuropeptide; antagonist; metabolism Successful, long-term treatment of small-cell lung cancer (SCLC) remains a major therapeutic problem. […] The disease is characterised by its ability to secrete and to be growth stimulated by a variety of neuropeptide growth factors that include bombesin/gastrin- releasing peptide (GRP), vasopressin, bradykinin, cholecys- tokinin and neurotensin (Woll and Rozengut, 1989). […] These agents include [D- Arg'-D-Phe5-D-Trp7'9-Leu' 1]-substance P and [Arg6-D-Trp7'9- NmePhe8]-substance P(6-11) (code named antagonists D and G respectively) (Sethi et al., 1992). […] In the near future antagonist G will be the first of this new class of compound, broad- spectrum neuropeptide growth factor antagonists, to enter a phase I clinical trial for the potential treatment of SCLC. […] The research reported here describes the characterisation of the in vitro metabolism of antagonist D, comparing its metabolic stability to that of antagonist G, which we have previously reported (Jones et al., 1995). […] Materials and methods Antagonist D was purchased from Peninsula Laboratories (St Helens, UK), Antagonist G was supplied by Peptech (Europe) (Copenhagen, Denmark). H-D-Arg-Pro-Lys-Pro-D- Phe-Gln-D-Trp-Phe-D-Trp-Leu-Leu-OH (metabolite 1) and H-D-Arg-Pro-Lys-Pro-D-Phe-Gln-D-Trp-Phe-D-Trp-Leu-OH (metabolite 2) were prepared in-house using conventional Fmoc solid-phase peptide synthesis procediures. Reagents for peptide synthesis were purchased from NovaBiochem (UK) (Nottingham, UK). Acetic acid and ammonium acetate were from BDH Chemicals (Poole, UK). Methanol and acetoni- trile were high-performance liquid chromatography (HPLC) grade from Rathburn Chemicals (Walkerburn, UK). Tri- fluoroacetic acid was from Sigma Chemical (Poole, UK). All other chemicals Were of the highest grade commercially available and used without further purification. Water was deionised and bidistilled in a quartz glass still. HPLC The HPLC system used consisted of two 510 HPLC pumps, a 712 WISP autosampler, a TCM column heater (all Waters, Northwich, UK) and a model 1046A fluorescence detector (Hewlett Packard, Walborn, Germany). A Waters MAXIMA 820 computer package was used with a Waters system interface module to control the system operation and collect and integrate data. Separation was achieved on a Prime- sphere 5 gm (250 x 4.6 mm) column (Phenomenex, Maccles- field, UK) using isocratic elution with 45% (v/v) acetonitrile in 0.1% (v/v) aqueous triflouroacetic acid (TFA) at 450C. Detection of the peptides was by fluorescence (Excitation 233 nm Emission 395 nm).

[3] = system: SCLC and non-SCLC cell lines; settings: SCLC and non-SCLC cell lines in vitro; ref Reeve and Bleehan, 1994; cited from earlier work
Description: as §1

[4] = system: SCLC xenografts (WX322 and H69); settings: WX322 and H69 xenografts in nude mice; ref Langdon et al., 1992; cited from earlier work
Description: as §1

[5] = system: non-SCLC, ovarian and cervical cancer cell lines; settings: ref Everard et al., 1992; cited from earlier work
Description: as §1

SCLC cells = settings: ref Woll and Rozengurt, 1988; cited from earlier work
Description: as §1

[6] = system: SCLC xenografts (HC12 and ICR-SC112); settings: ref Everard et al., 1993; cited from earlier work
Description: as §1

[7] = system: Swiss 3T3 cells stimulated by vasopressin; assay: [3H]thymidine uptake by Swiss 3T3 cells after mitogenic stimulation by vasopressin; type: cell-based, murine; settings: vasopressin 1 nM, 40 h, mean of duplicate samples
[8] = system: Swiss 3T3 cells stimulated by bombesin; assay: [3H]thymidine uptake by Swiss 3T3 cells after mitogenic stimulation by bombesin; type: cell-based, murine; settings: bombesin 1 nM, insulin 1 µg/ml, 40 h, mean of duplicate samples
[9] = system: Swiss 3T3 cells stimulated by bradykinin; assay: [3H]thymidine uptake by Swiss 3T3 cells after mitogenic stimulation by bradykinin; type: cell-based, murine; settings: bradykinin 1 nM, insulin 1 µg/ml, 40 h, mean of duplicate samples
[10] = 1% (w/v) mouse liver homogenate in PBS (pH 7.4); settings: 37?C, up to 1 h
[11] = 2% w/v mouse liver homogenate in PBS (pH 7.4); settings: 37?C, up to 2 h
human plasma = settings: cited from earlier work

Compound: CC(C)C[C@H](NC(=O)[C@H](CC(C)C)NC(=O)[C@@H](Cc1c[nH]c2ccccc12)NC(=O)[C@H](Cc1ccccc1)NC(=O)[C@@H](Cc1c[nH]c2ccccc12)NC(=O)[C@H](CCC(N)=O)NC(=O)[C@@H](Cc1ccccc1)NC(=O)[C@@H]1CCCN1C(=O)[C@H](CCCCN)NC(=O)[C@@H]1CCCN1C(=O)[C@H](N)CCCN=C(N)N)C(N)=O [antagonist D, [D-Arg1, D-Phe5, D-Trp7,9, Leu11]substance P] (HELM PEPTIDE1{[dR].P.K.P.[dF].Q.[dW].F.[dW].L.L.[am]}$$$$V2.0)
- stability in human plasma [1]: stable
- amount of antagonist remaining after 1 h of incubation [2]: 30.8 nmol
- stability relative to antagonist G ([2]; 1% mouse liver homogenate, 37°C (Figure 2)): almost twice as stable as antagonist G
- rate of disappearance relative to antagonist G ([2]; over the first 30 min, 1% mouse liver homogenate, 37°C): half the rate of antagonist G

Compound: CC(C)C[C@H](NC(=O)[C@H](CC(C)C)NC(=O)[C@@H](Cc1c[nH]c2ccccc12)NC(=O)[C@H](Cc1ccccc1)NC(=O)[C@@H](Cc1c[nH]c2ccccc12)NC(=O)[C@H](CCC(N)=O)NC(=O)[C@@H](Cc1ccccc1)NC(=O)[C@@H]1CCCN1C(=O)[C@H](CCCCN)NC(=O)[C@@H]1CCCN1C(=O)[C@H](N)CCCNC(=N)N)C(N)=O [antagonist D, [D-Arg1, D-Phe5, D-Trp7,9, Leu11]substance P] (HELM PEPTIDE1{[dR].P.K.P.[dF].Q.[dW].F.[dW].L.L.[am]}$$$$V2.0)
- induction of apoptosis [3]: induce apoptosis
- growth of SCLC xenografts [4]: inhibit the growth
- in vitro activity against cancer cell lines [5]: activity
- potency against SCLC cells in vitro relative to antagonist G (SCLC cells): equipotent to antagonist G
- activity against other SCLC xenografts in vivo [6]: activity
- IC50 ([7]; [3H]thymidine uptake, read-out: IC50 value, vasopressin stimulated growth): < 1000 nM

Compound: CSCC[C@H](NC(=O)[C@H](CC(C)C)NC(=O)[C@@H](Cc1c[nH]c2ccccc12)NC(=O)[C@H](Cc1ccccc1)N(C)C(=O)[C@@H](Cc1c[nH]c2ccccc12)NC(=O)[C@@H](N)CCCNC(=N)N)C(N)=O [antagonist G, [Arg6, D-Trp7,9, NmePhe8]substance P(6-11)] (HELM PEPTIDE1{R.[dW].[meF].[dW].L.M.[am]}$$$$V2.0)
- growth of SCLC xenografts [4]: inhibit the growth
- amount of antagonist remaining after 1 h of incubation [2]: 21.1 nmol

Compound: CC(C)C[C@H](NC(=O)[C@H](CC(C)C)NC(=O)[C@@H](Cc1c[nH]c2ccccc12)NC(=O)[C@H](Cc1ccccc1)NC(=O)[C@@H](Cc1c[nH]c2ccccc12)NC(=O)[C@H](CCC(N)=O)NC(=O)[C@@H](Cc1ccccc1)NC(=O)[C@@H]1CCCN1C(=O)[C@H](CCCCN)NC(=O)[C@@H]1CCCN1C(=O)[C@H](N)CCCNC(=N)N)C(=O)O [metabolite 1, H-D-Arg-Pro-Lys-Pro-D-Phe-Gln-D-Trp-Phe-D-Trp-Leu-Leu-OH] (HELM PEPTIDE1{[dR].P.K.P.[dF].Q.[dW].F.[dW].L.L}$$$$V2.0)
- antagonist activity with respect to bombesin (inhibition of [3H]thymidine uptake) [8]: retained none of the antagonist properties
- amount of metabolite accumulated after 1 h [2]: 9.6 nmol
- vasopressin antagonist activity (inhibition of [3H]thymidine uptake) ([7]; insulin 1 µg/ml): inactive
- antagonist activity with respect to bradykinin (inhibition of [3H]thymidine uptake) [9]: retained none of the antagonist properties

Compound: CC(C)C[C@H](NC(=O)[C@@H](Cc1c[nH]c2ccccc12)NC(=O)[C@H](Cc1ccccc1)NC(=O)[C@@H](Cc1c[nH]c2ccccc12)NC(=O)[C@H](CCC(N)=O)NC(=O)[C@@H](Cc1ccccc1)NC(=O)[C@@H]1CCCN1C(=O)[C@H](CCCCN)NC(=O)[C@@H]1CCCN1C(=O)[C@H](N)CCCNC(=N)N)C(=O)O [metabolite 2, H-D-Arg-Pro-Lys-Pro-D-Phe-Gln-D-Trp-Phe-D-Trp-Leu-OH] (HELM PEPTIDE1{[dR].P.K.P.[dF].Q.[dW].F.[dW].L}$$$$V2.0)
- antagonist activity with respect to bombesin (inhibition of [3H]thymidine uptake) [8]: retained none of the antagonist properties
- amount of metabolite accumulated after 1 h [2]: 12.3 nmol
- antagonist activity with respect to bradykinin (inhibition of [3H]thymidine uptake) [9]: retained none of the antagonist properties

Compound: H-Arg-D-Trp-N"'Phe-D-Trp-Leu-Met-NH,
- cleaved bond [10]: Met-NH2, major

Compound: H-D-Arg-Pro-Lys-Pro-D-Phe-GIn-D-Trp-Phe-D-Trp-Leu-Leu-NH2
- cleaved bond [11]: Leu11-NH2, major; also recorded: Leu10-Leu11, major
- not cleaved (human plasma): stable in human plasma
- cleaved bond [10]: Leu11-NH2, major; also recorded: Leu10-Leu11, major
